The NIST ThermoML archive (doi:10.1016/j.jct.2017.08.004)

Experiments:
[1] = Molar enthalpy of transition or fusion; conditions: Crystal; DSC
[2] = for molar entropy: 101.33 kPa

OC[C@H](O)C(O)[C@@H](O)CO [L-(-)-arabitol]
Conditions	Molar enthalpy of transition or fusion [kcal/mol]
[1]	8.79

[2]
Conditions	molar entropy [J/K/mol]
1 K, Crystal, relaxation calorimetry	0.0005209
2 K, Crystal, relaxation calorimetry	0.002213
3 K, Crystal, relaxation calorimetry	0.006332
4 K, Crystal, relaxation calorimetry	0.0143
5 K, Crystal, relaxation calorimetry	0.0278
6 K, Crystal, relaxation calorimetry	0.04885
7 K, Crystal, relaxation calorimetry	0.07993
8 K, Crystal, relaxation calorimetry	0.1243
9 K, Crystal, relaxation calorimetry	0.1854
10 K, Crystal, relaxation calorimetry	0.2663
15 K, Crystal, relaxation calorimetry	1.038
20 K, Crystal, relaxation calorimetry	2.479
25 K, Crystal, relaxation calorimetry	4.532
30 K, Crystal, relaxation calorimetry	7.074
35 K, Crystal, relaxation calorimetry	9.99
40 K, Crystal, relaxation calorimetry	13.19
45 K, Crystal, relaxation calorimetry	16.61
50 K, Crystal, relaxation calorimetry	20.19
55 K, Crystal, relaxation calorimetry	23.88
60 K, Crystal, relaxation calorimetry	27.65
65 K, Crystal, relaxation calorimetry	31.48
70 K, Crystal, relaxation calorimetry	35.36
75 K, Crystal, relaxation calorimetry	39.27
80 K, Crystal, relaxation calorimetry	43.19
85 K, Crystal, relaxation calorimetry	47.12
90 K, Crystal, relaxation calorimetry	51.04
95 K, Crystal, relaxation calorimetry	54.97
100 K, Crystal, relaxation calorimetry	58.89
110 K, Crystal, relaxation calorimetry	66.69
120 K, Crystal, relaxation calorimetry	74.44
130 K, Crystal, relaxation calorimetry	82.11
140 K, Crystal, relaxation calorimetry	89.7
150 K, Crystal, relaxation calorimetry	97.21
160 K, Crystal, relaxation calorimetry	104.63
170 K, Crystal, relaxation calorimetry	111.97
180 K, Crystal, relaxation calorimetry	119.24
190 K, Crystal, relaxation calorimetry	126.44
200 K, Crystal, relaxation calorimetry	133.58
210 K, Crystal, relaxation calorimetry	140.66
220 K, Crystal, relaxation calorimetry	147.69
230 K, Crystal, relaxation calorimetry	154.69
240 K, Crystal, relaxation calorimetry	161.65
250 K, Crystal, relaxation calorimetry	168.59
260 K, Crystal, relaxation calorimetry	175.51
270 K, Crystal, relaxation calorimetry	182.43
273.15 K, Crystal, relaxation calorimetry	184.6
280 K, Crystal, relaxation calorimetry	189.34
290 K, Crystal, relaxation calorimetry	196.25
298.15 K, Crystal, relaxation calorimetry	201.89
300 K, Crystal, relaxation calorimetry	203.17
305 K, Crystal, Small sample (50 mg) DSC	206.64
310 K, Crystal, Small sample (50 mg) DSC	210.13
315 K, Crystal, Small sample (50 mg) DSC	213.64
320 K, Crystal, Small sample (50 mg) DSC	217.18
325 K, Crystal, Small sample (50 mg) DSC	220.73
330 K, Crystal, Small sample (50 mg) DSC	224.32
335 K, Crystal, Small sample (50 mg) DSC	227.93
340 K, Crystal, Small sample (50 mg) DSC	231.6
345 K, Crystal, Small sample (50 mg) DSC	235.34
350 K, Crystal, Small sample (50 mg) DSC	239.2
355 K, Crystal, Small sample (50 mg) DSC	243.24
360 K, Crystal, Small sample (50 mg) DSC	247.71
380 K, Liquid, Small sample (50 mg) DSC	355.56
385 K, Liquid, Small sample (50 mg) DSC	361.46
390 K, Liquid, Small sample (50 mg) DSC	367.15
395 K, Liquid, Small sample (50 mg) DSC	372.77
400 K, Liquid, Small sample (50 mg) DSC	378.34
405 K, Liquid, Small sample (50 mg) DSC	383.87
410 K, Liquid, Small sample (50 mg) DSC	389.35
415 K, Liquid, Small sample (50 mg) DSC	394.8

Conditions	Normal melting temperature [°C]
[2], Crystal, DTA	96.70
